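Method: 48-hour compound exposure of cells in 96-well plates, five concentrations, linear interpolation of endpoints. At the GI50, growth is halved.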 Activity calls are given as the source filed them. Cut-off read from the data, not from the text of the source: active = GI50 up to about 1.1 µM and inactive = higher.
Columns and labels:
Assay in all cases: inhibition of tumour cell growth, NCI panel, 48 h
786-0 = system: 786-0
A498 = system: A498
A549 = system: A549
ACHN = system: ACHN
CAKI-1 = system: CAKI-1
CCRF-CEM = system: CCRF-CEM
COLO 205 = system: COLO 205
DLD-1 = system: DLD-1
DMS-114 = system: DMS-114
DMS-273 = system: DMS-273
EKVX = system: EKVX
HCC 2998 = system: HCC 2998
HCT-116 = system: HCT-116
HCT-15 = system: HCT-15
HL-60 = system: HL-60
HOP-18 = system: HOP-18
HOP-62 = system: HOP-62
HOP-92 = system: HOP-92
HT-29 = system: HT-29
IGROV-1 = system: IGROV-1
K562 = system: K562
KM-20L2 = system: KM-20L2
KM12 = system: KM12
LOX IMVI = system: LOX IMVI
LXFL 529 = system: LXFL 529
M14 = system: M14
M19-MEL = system: M19-MEL
MOLT-4 = system: MOLT-4
Malme-3M = system: Malme-3M
NCI-H226 = system: NCI-H226
NCI-H23 = system: NCI-H23
NCI-H460 = system: NCI-H460
NCI-H522 = system: NCI-H522
OVCAR-3 = system: OVCAR-3
OVCAR-4 = system: OVCAR-4
OVCAR-5 = system: OVCAR-5
OVCAR-8 = system: OVCAR-8
RPMI-8226 = system: RPMI-8226
RXF 393 = system: RXF 393
SF-268 = system: SF-268
SF-295 = system: SF-295
SF-539 = system: SF-539
SK-MEL-28 = system: SK-MEL-28
SK-MEL-2 = system: SK-MEL-2
SK-MEL-5 = system: SK-MEL-5
SK-OV-3 = system: SK-OV-3
SN12C = system: SN12C
SNB-19 = system: SNB-19
SNB-75 = system: SNB-75
SNB-78 = system: SNB-78
SR = system: SR
SW-620 = system: SW-620
TK-10 = system: TK-10
U-251 = system: U-251
UACC-257 = system: UACC-257
UACC-62 = system: UACC-62
UO-31 = system: UO-31
XF498 = system: XF498
RXF 631 = system: RXF 631

Measured: GI50

CC(OC1CC(=O)CC2C(=O)C=CC(=O)C12)c1ccccc1 (centres undefined)
inactive: 786-0 13.9 µM | A498 18.1 µM | A549 19.1 µM | ACHN 11.2 µM | CAKI-1 16.9 µM | CCRF-CEM 2.67 µM | COLO 205 16.9 µM | DLD-1 12.9 µM | DMS-114 8.05 µM | DMS-273 19.1 µM | EKVX 16.2 µM | HCC 2998 16.1 µM | HCT-116 9.75 µM | HL-60 3.25 µM | HOP-18 18.2 µM | HOP-62 24 µM | HOP-92 1.42 µM | HT-29 17.7 µM | IGROV-1 17.4 µM | K562 3.31 µM | KM-20L2 17.3 µM | KM12 16.6 µM | LOX IMVI 17.2 µM | LXFL 529 7.33 µM | M14 18.7 µM | M19-MEL 16.1 µM | MOLT-4 4.97 µM | Malme-3M 20.4 µM | NCI-H226 20 µM | NCI-H23 18.1 µM | NCI-H460 > 42.9 µM | NCI-H522 1.53 µM | OVCAR-3 19.2 µM | OVCAR-4 18.3 µM | OVCAR-5 17.6 µM | OVCAR-8 15.3 µM | RPMI-8226 17.3 µM | RXF 393 18.9 µM | SF-268 21.2 µM | SF-295 16.6 µM | SF-539 19.8 µM | SK-MEL-28 20.8 µM | SK-MEL-2 19.7 µM | SK-MEL-5 18.8 µM | SK-OV-3 > 42.2 µM | SN12C 19 µM | SNB-19 28.4 µM | SNB-75 25.6 µM | SNB-78 19.5 µM | SR 19.1 µM | SW-620 13.8 µM | TK-10 17.8 µM | U-251 14.5 µM | UACC-257 19.1 µM | UACC-62 16.2 µM | UO-31 16 µM | XF498 15.8 µM
17.1 µM: HCT-15

COc1cc(Br)c(/C=N\c2cccc3cc(OC)c(OC)cc23)cc1OC
inactive: 786-0 22.6 µM | A549 > 100 µM | ACHN 51.5 µM | CAKI-1 41.5 µM | CCRF-CEM 17.8 µM | COLO 205 97.7 µM | DLD-1 43.4 µM | DMS-114 17.2 µM | DMS-273 43.4 µM | EKVX 50.2 µM | HCC 2998 > 100 µM | HCT-116 34.3 µM | HL-60 11.3 µM | HOP-18 > 100 µM | HOP-62 > 100 µM | HOP-92 28.2 µM | HT-29 31.9 µM | IGROV-1 61.2 µM | K562 19.9 µM | KM-20L2 55.6 µM | KM12 28.8 µM | LOX IMVI 35.3 µM | LXFL 529 25.9 µM | M14 30 µM | M19-MEL 41.6 µM | MOLT-4 26.8 µM | Malme-3M 54.1 µM | NCI-H226 41.7 µM | NCI-H23 39.7 µM | NCI-H460 > 100 µM | NCI-H522 > 100 µM | OVCAR-3 23.5 µM | OVCAR-4 91.8 µM | OVCAR-5 > 100 µM | OVCAR-8 34.7 µM | RPMI-8226 23.9 µM | RXF 393 20.2 µM | RXF 631 50.5 µM | SF-268 45.4 µM | SF-295 25.9 µM | SF-539 22.1 µM | SK-MEL-28 88.3 µM | SK-MEL-5 36.1 µM | SK-OV-3 > 100 µM | SN12C 40.6 µM | SNB-19 > 100 µM | SNB-75 16.8 µM | SNB-78 55.8 µM | SR 15.5 µM | SW-620 35.6 µM | TK-10 83.2 µM | U-251 42.5 µM | UACC-257 85.7 µM | UACC-62 26 µM | UO-31 27.9 µM
31.4 µM: HCT-15

O=C(O)c1oc2ccc([N+](=O)[O-])c3c2c1CCC3
inactive: 786-0 98.9 µM | A549 > 100 µM | ACHN > 100 µM | CAKI-1 > 100 µM | COLO 205 > 100 µM | DLD-1 > 100 µM | DMS-114 > 100 µM | DMS-273 > 100 µM | EKVX > 100 µM | HCC 2998 > 100 µM | HCT-116 > 100 µM | HL-60 > 100 µM | HOP-18 > 100 µM | HOP-62 > 100 µM | HOP-92 27.7 µM | HT-29 > 100 µM | KM-20L2 > 100 µM | KM12 > 100 µM | LOX IMVI > 100 µM | LXFL 529 > 100 µM | M14 > 100 µM | M19-MEL > 100 µM | Malme-3M 54.1 µM | NCI-H226 > 100 µM | NCI-H23 > 100 µM | NCI-H460 > 100 µM | NCI-H522 > 100 µM | OVCAR-3 > 100 µM | OVCAR-4 > 100 µM | OVCAR-5 > 100 µM | OVCAR-8 > 100 µM | RXF 393 > 100 µM | SF-268 74.3 µM | SF-295 > 100 µM | SF-539 > 100 µM | SK-MEL-28 > 100 µM | SK-MEL-2 > 100 µM | SN12C > 100 µM | SNB-19 > 100 µM | SNB-75 67.6 µM | SNB-78 > 100 µM | SW-620 > 100 µM | TK-10 > 100 µM | U-251 > 100 µM | UACC-257 > 100 µM | UO-31 > 100 µM | XF498 24.4 µM

Cc1cc(O)c(C=O)c(C)c1CCC1(C)C=Cc2cc(O)ccc2O1 (centres undefined)
22.9 µM: HCT-15
inactive: 786-0 29.3 µM | A498 39.8 µM | A549 35.9 µM | ACHN 15.7 µM | CAKI-1 19.2 µM | CCRF-CEM 17.1 µM | COLO 205 15.6 µM | DLD-1 19.6 µM | DMS-114 18.4 µM | DMS-273 21.5 µM | EKVX 29.5 µM | HCC 2998 29.4 µM | HCT-116 16.8 µM | HL-60 22.8 µM | HOP-18 18.3 µM | HOP-62 20 µM | HOP-92 22.2 µM | HT-29 31 µM | IGROV-1 26.2 µM | K562 24.3 µM | KM-20L2 25.1 µM | KM12 31.3 µM | LOX IMVI 19.6 µM | LXFL 529 15.7 µM | M14 17.5 µM | M19-MEL 27.7 µM | MOLT-4 18.4 µM | Malme-3M 24.8 µM | NCI-H226 26.5 µM | NCI-H23 16.7 µM | NCI-H460 22.6 µM | NCI-H522 14.8 µM | OVCAR-3 18.5 µM | OVCAR-4 21.9 µM | OVCAR-5 30.5 µM | OVCAR-8 17.1 µM | RPMI-8226 20.9 µM | SF-268 30.3 µM | SF-295 23.4 µM | SF-539 18.3 µM | SK-MEL-28 22.7 µM | SK-MEL-2 24.1 µM | SK-MEL-5 25.2 µM | SK-OV-3 23.9 µM | SN12C 29.3 µM | SNB-19 38.9 µM | SNB-75 22.6 µM | SNB-78 21.2 µM | SR > 100 µM | SW-620 20.9 µM | TK-10 46.5 µM | U-251 21.4 µM | UACC-257 18.7 µM | UACC-62 16.7 µM | XF498 19.1 µM

Cc1ccc(S(=O)(=O)N/N=c2\c(C)c(C3=NS(=O)(=O)c4cc(S(N)(=O)=O)c(Cl)cc4N3)oc3c(Cl)cc(Cl)cc23)cc1
inactive: 786-0 > 100 µM | A498 > 100 µM | A549 > 100 µM | ACHN > 100 µM | CAKI-1 > 100 µM | CCRF-CEM 32.2 µM | COLO 205 22.3 µM | DLD-1 > 100 µM | DMS-114 26.9 µM | DMS-273 27 µM | EKVX > 100 µM | HCC 2998 > 100 µM | HCT-116 65.5 µM | HL-60 > 100 µM | HOP-18 45.3 µM | HOP-62 > 100 µM | HOP-92 27.7 µM | HT-29 49.9 µM | IGROV-1 > 100 µM | K562 61.1 µM | KM-20L2 > 100 µM | KM12 > 100 µM | LOX IMVI 86.5 µM | LXFL 529 > 100 µM | M14 > 100 µM | M19-MEL > 100 µM | MOLT-4 > 100 µM | Malme-3M > 100 µM | NCI-H226 > 100 µM | NCI-H23 > 100 µM | NCI-H460 60.7 µM | OVCAR-3 > 100 µM | OVCAR-4 > 100 µM | OVCAR-5 > 100 µM | OVCAR-8 > 100 µM | RPMI-8226 36.9 µM | RXF 393 59.7 µM | RXF 631 79.1 µM | SF-268 > 100 µM | SF-295 > 100 µM | SF-539 > 100 µM | SK-MEL-28 > 100 µM | SK-MEL-2 > 100 µM | SK-MEL-5 > 100 µM | SK-OV-3 > 100 µM | SN12C > 100 µM | SNB-19 > 100 µM | SNB-75 > 100 µM | SNB-78 > 100 µM | SR > 100 µM | SW-620 6.87 µM | TK-10 > 100 µM | U-251 23.5 µM | UACC-257 > 100 µM | UACC-62 > 100 µM | UO-31 > 100 µM
39.4 µM: HCT-15

— ChEMBL document CHEMBL1201862, “PubChem BioAssay data set” (2004)
